The source of these data is patent US8592421B2, “Cyclic bioisosters of purine system derivatives and a pharmaceutical composition based thereon” (priority 2003, dated 2013).

Data set [1] is described as follows: Chronic toxicity of suppositories: indexes of peripheral blood. In kind it is in vivo, rats. Also noted: Thrombocytes: unit not given here. The conditions noted are these: male rats, suppositories rectally; for Basophiles / Juveniles: 1 month/2 months (one value given), control 0.
Data set [2] can be described thus: Morphine abstinence model: indicator enzymes ALT, AST, γ-GTP in blood plasma. The conditions noted are these: 20.0 mg/kg intramuscularly three times a day; for γ-GTP in blood plasma, Ci: control 6.261 ± 1.80; for ALT in blood plasma, Ci: control 106.76 ± 111.35; for AST in blood plasma, Ci: control 179.881 ± 11.94. Here is the method: The experiments were carried out on rats in series of 7 animals on each compound according to the invention. Non-morphinized animal with not administered with compounds according to the invention were used as a control group. […] Then the rats were decapitated, the blood from somnolent arteries was collected in test tubes with solution EDTA as an anticoagulant, centrifuged at 1500 g for 15 minutes at 4° C.
To estimate possible hepatoprotective action of the compounds according to the invention under conditions of development of an oxidizing stress in the liver cells, effect of these compounds on the most important biochemical blood indexes, in particular, on the content in blood plasma of indicator enzyme of aspartateaminotransferase (AST), alanineaminotransferase (ALT), γ-glutamiletranspeptidase (γ-GTP) was investigated. The content of enzymes was estimated by their catalyzing activity in blood plasma.
The activity of AST, ALT and γ-GTP was determined by means of diagnostic sets DiaSys, Germany.

Data set [3] has as its system synthase of nitrogen oxide (NOC). Briefly: Morphine abstinence model: activity of synthase of nitrogen oxide (NOC), radiometric [3H]L-citrulline method. The format is in vivo, rats Wistar. The settings on record: 20.0 mg/kg intramuscularly; for Activity of NOC: Mesencephalon: control 2.18 ± 0.09; for Activity of NOC: Hypothalamus: control 5.37 ± 0.20.

Regarding `O=c1[nH]n([C@@H]2O[C@H](CO)[C@@H](O)[C@H]2O)c(=O)c2nc(O)cnc12.[Na].[Na]` [Compound 23, disodium salt of 2-hydroxy-7-(β-D-ribofuranosile)pyrazine[2,3—Cl]-6H-pyridazine-5,8-dione], the Basophiles in data set [1] (50 mg/kg) and in data set [1] (500 mg/kg) was 0% throughout. For the same compound, the Juveniles in data set [1] (50 mg/kg) and in data set [1] (500 mg/kg) was 0% throughout. In addition, the Stab neutrophil in data set [1] (50 mg/kg, 1 month, control 0.8 ± 0.4) worked out at 1.1 ± 0.5%; in data set [1] (50 mg/kg, 2 months, control 2.4 ± 0.4), 1.6 ± 0.2%; in data set [1] (500 mg/kg, 1 month, control 0.8 ± 0.4), 1.0 ± 0.3%; in data set [1] (500 mg/kg, 2 months, control 2.4 ± 0.4) it was 1.6 ± 0.2%. Besides, the REE is given as 1.7 ± 0.8 mm/h in data set [1] (50 mg/kg, 1 month, control 2.2 ± 0.4); 1.5 ± 0.1 mm/h in data set [1] (50 mg/kg, 2 months, control 1.4 ± 0.2); 2.0 ± 0.3 mm/h in data set [1] (500 mg/kg, 1 month, control 2.2 ± 0.4); 1.7 ± 0.3 mm/h in data set [1] (500 mg/kg, 2 months, control 1.4 ± 0.2). Also, the Reticulocytes in data set [1] (50 mg/kg, 1 month, control 2.8%0.3) came to 2.7 ± 0.3%; in data set [1] (50 mg/kg, 2 months, control 2.9 ± 0.2), 2.8 ± 0.1%; in data set [1] (500 mg/kg, 1 month, control 2.8%0.3), 3.1 ± 0.1%; in data set [1] (500 mg/kg, 2 months, control 2.9 ± 0.2) it was 3.4 ± 0.1%. In addition, the Eosinophiles amounted to 3.6 ± 0.5% in data set [1] (50 mg/kg, 1 month, control 4.0 + 0.3); 4.0 ± 0.7% in data set [1] (50 mg/kg, 2 months, control 4.4 + 1.2); 3.3 ± 0.7% in data set [1] (500 mg/kg, 1 month, control 4.0 + 0.3); 3.8 ± 1.3% in data set [1] (500 mg/kg, 2 months, control 4.4 + 1.2). Besides, the Erythrocytes in data set [1] (50 mg/kg, 1 month, control 5.6 ± 0.1) is reported as 5.7 ± 0.1 mln/mm^3; in data set [1] (50 mg/kg, 2 months, control 6.1 ± 0.1), 6.0 ± 0.2 mln/mm^3; in data set [1] (500 mg/kg, 1 month, control 5.6 ± 0.1) it was 5.7 ± 0.2 mln/mm^3; in data set [1] (500 mg/kg, 2 months, control 6.1 ± 0.1) it was 6.4 ± 0.2 mln/mm^3. Also, the Hemoglobin is 10.7 ± 0.1 mmol/L in data set [1] (50 mg/kg, 1 month, control 10.5 ± 0.2); 11.0 ± 0.1 mmol/L in data set [1] (50 mg/kg, 2 months, control 11.4 ± 0.2); 10.7 ± 0.2 mmol/L in data set [1] (500 mg/kg, 1 month, control 10.5 ± 0.2); 12.3 ± 0.3 mmol/L in data set [1] (500 mg/kg, 2 months, control 11.4 ± 0.2). The Leukocyte was determined as 15.5 ± 1.1 thousand/mm^3 in data set [1] (50 mg/kg, 1 month, control 17.4 ± 1.3); 17.6 ± 1.2 thousand/mm^3 in data set [1] (50 mg/kg, 2 months, control 19.1 ± 1.9); 16.4 ± 1.1 thousand/mm^3 in data set [1] (500 mg/kg, 1 month, control 17.4 ± 1.3); 20.1 ± 1.7 thousand/mm^3 in data set [1] (500 mg/kg, 2 months, control 19.1 ± 1.9). In addition, the Haematocrite was 47.7 ± 1.2% in data set [1] (50 mg/kg, 1 month, control 45.9 ± 1.7); 46.5 ± 1.3% in data set [1] (50 mg/kg, 2 months, control 45.9 ± 1.8); 47.9 ± 1.1% in data set [1] (500 mg/kg, 1 month, control 45.9 ± 1.7); 49.4 ± 1.9% in data set [1] (500 mg/kg, 2 months, control 45.9 ± 1.8). In addition, the “Average volume of erythrocytes” value stood at 82.7 ± 1.6 Mkm^3 in data set [1] (50 mg/kg, 1 month, control 81.4 ± 1.7); 77.5 ± 1.7 Mkm^3 in data set [1] (50 mg/kg, 2 months, control 74.6 + 1.9); 83.5 ± 1.7 Mkm^3 in data set [1] (500 mg/kg, 1 month, control 81.4 ± 1.7); 82.1 ± 1.4 Mkm^3 in data set [1] (500 mg/kg, 2 months, control 74.6 + 1.9). Further, the “Coagulation, time” value was 150 ± 15 s in data set [1] (50 mg/kg, 1 month, control 152 ± 10.2); 313 ± 17 s in data set [1] (50 mg/kg, 2 months, control 316 ± 8); 156 ± 11 s in data set [1] (500 mg/kg, 1 month, control 152 ± 10.2); 3171 ± 12 s in data set [1] (500 mg/kg, 2 months, control 316 ± 8). The Thrombocytes in data set [1] (50 mg/kg, 1 month, control 707 ± 23) is reported as 659 ± 18; in data set [1] (50 mg/kg, 2 months, control 593 ± 14) it was 586 ± 28; in data set [1] (500 mg/kg, 1 month, control 707 ± 23), 678 ± 18; in data set [1] (500 mg/kg, 2 months, control 593 ± 14), 628 ± 23.
As for `O=c1[nH][nH]c(=O)c2ncccc12.[Li]` [Compound 6, lithium salt of pyrido[2,3-d]-6H-pyridazine-5,8-dione], in data set [2] (Control + compound), the “γ-GTP in blood plasma, Ci” value came to 8.27 ± 2.12 mE/l; the “ALT in blood plasma, Ci” value was determined as 114.5 ± 1.13 mE/l; the “AST in blood plasma, Ci” value was determined as 176.18 ± 3.26 mE/l. Further, in data set [2] (control + Morphine + Compound), the “γ-GTP in blood plasma, Ci” value was determined as 12.52 ± 2.02 mE/l; the “ALT in blood plasma, Ci” value is recorded as 122.44 ± 2.01 mE/l; the “AST in blood plasma, Ci” value worked out at 198.34 ± 9.32 mE/l. In data set [3] (Control + Compound), the “Activity of NOC: Mesencephalon” value was 2.84 ± 0.31 pmol/min/mg of protein and the “Activity of NOC: Hypothalamus” value is reported as 5.93 ± 0.27 pmol/min/mg of protein. Moreover, in data set [3] (Control + Morphine + compound), the “Activity of NOC: Mesencephalon” value was 1.99 ± 0.31 pmol/min/mg of protein and the “Activity of NOC: Hypothalamus” value is listed as 5.24 ± 0.24 pmol/min/mg of protein.
In the case of `O=c1[nH][nH]c(=O)c2nccnc12.[Li]` [Compound 25, lithium salt of pyrazine[2,3-d]-6H-pyridazine-5,8-dione], in data set [2] (Control + compound), the “γ-GTP in blood plasma, Ci” value is recorded as 7.57 ± 1.93 mE/l; the “ALT in blood plasma, Ci” value turned out to be 115.27 ± 1.09 mE/l; the “AST in blood plasma, Ci” value was 177.34 ± 6.13 mE/l. Besides, in data set [2] (control + Morphine + Compound), the “γ-GTP in blood plasma, Ci” value was 11.37 ± 1.54 mE/l; the “ALT in blood plasma, Ci” value is reported as 121.96 ± 3.4 mE/l; the “AST in blood plasma, Ci” value amounted to 196.46 ± 15.34 mE/l. In data set [3] (Control + Compound), the “Activity of NOC: Mesencephalon” value is given as 2.65 ± 0.43 pmol/min/mg of protein and the “Activity of NOC: Hypothalamus” value is 5.88 ± 0.27 pmol/min/mg of protein. Also, in data set [3] (Control + Morphine + compound), the “Activity of NOC: Mesencephalon” value is 1.97 ± 0.27 pmol/min/mg of protein and the “Activity of NOC: Hypothalamus” value is on record as 5.23 ± 0.27 pmol/min/mg of protein.
